Measured values taken from article PMC11447708, “Comprehensive Exploration of Bromophenol Derivatives: Promising Antibacterial Agents against SA and MRSA” (ACS Omega, 2024).
Converted amounts (≈) assume the structure as drawn. Like-named read-outs stand apart in the source and are kept apart here. One block for each compound: values may come before it.

Legend:
[1] = system: S. aureus ATCC 2793; assay: agar well diffusion, zone of inhibition; assay type: cell-based, Staphylococcus aureus; details: for Diameter of zone inhibition on SA: Supplement S4, antibiotic standards; for inhibition zone diameter S. aureus: concentration (μg): 20 for 1-3, 10 for ampicillin and tobramycin, 30 for tetracycline
Method: (§1) The susceptibility test was measured in vitro by employing the agar well diffusion method.[20]S. aureus ATCC 2793 and P. aeruginosa ATCC 27853 strains were used in this experiment. A suspension of the test organism was prepared in nutrient broth by overnight culture for 24 h at 37 °C and 7.0 pH. The agar plate surface was inoculated by spreading a volume of the microbial inoculum over the entire agar surface. Then, a hole with a diameter of 6 to 8 mm was punched aseptically with a sterile tip, and a volume (20 μL) of the tested solution at the desired concentration was introduced into the well. Then, agar plates were incubated under suitable conditions depending upon the test microorganism. After incubation, the plates were examined and the diameters of the zone of complete inhibition were observed.

[2] = system: S. aureus; assay: microbroth dilution assay (MIC, resazurin); assay type: cell-based, Staphylococcus aureus; details: 18 h, 37 °C; for MIC: Staphylococcus aureus
Method: (§2) The antibacterial efficacy of the chosen compounds was assessed through the microbroth dilution assay conducted in 96-well culture plates.[21] A stock solution with a concentration of 20 mg/mL was prepared in dimethyl sulfoxide (DMSO). Subsequently, autoclaved nutrient broth (100 μL) was introduced into the culture plate wells, with the initial row of the microtiter plate receiving 100 μL of the test material. 2-fold serial dilutions of the test compounds were then meticulously executed. To serve as an indicator, 20 μL of 2× resazurin solution was added to each well. Finally, 10 μL of the bacterial suspension was incorporated into each well, yielding a final concentration of 5 × 10^6 CFU/mL. The experiment was conducted in duplicate, and the plates were incubated at 37 °C. After 18 h, the plates were scrutinized for any change in color indicative of bacterial growth.

[3] = system: P. aeruginosa ATCC 27853; assay: agar well diffusion, zone of inhibition; assay type: cell-based, Pseudomonas aeruginosa; details: for Diameter of zone inhibition on PA: Supplement S4, antibiotic standards; for inhibition zone diameter P. aeruginosa: concentration (μg): 20 for 1-3, 10 for ampicillin and tobramycin, 30 for tetracycline
Method: as §1

[4] = system: P. aeruginosa; assay: microbroth dilution assay (MIC, resazurin); assay type: cell-based, Pseudomonas aeruginosa; details: 18 h, 37 °C; for MIC: Pseudomonas aeruginosa
Method: as §2

[5] = system: MRSA; assay: agar well diffusion, zone of inhibition; assay type: cell-based, Staphylococcus aureus; details: for Diameter of zone inhibition on MRSA: Supplement S4, antibiotic standards; for inhibition zone diameter MRSA: concentration (μg): 20 for 1-3, 10 for ampicillin and tobramycin, 30 for tetracycline
Method: Staphylococcus aureus ATCC 2793, Pseudomonas aeruginosa ATCC 27853, and P. aeruginosa PA14 were activated, cultured, and stored in a refrigerator at −25 °C in the Laboratory of Biotechnology, Faculty of Chemical, Da Nang University of Science and Technology, The University of Da Nang. The MRSA antibiotic-resistant strain was isolated, identified,[17] and kindly provided by Dr. Ngo Thai Bich Van, Faculty of Chemical, Da Nang University of Science and Technology, The University of Da Nang.
as §1

[6] = system: P. aeruginosa ATCC 27853; assay: biofilm formation inhibition, crystal violet assay; assay type: cell-based, Pseudomonas aeruginosa; details: mean ± SD, n = 3
Method: Biofilm formation was evaluated utilizing the crystal violet assay.[22] The P. aeruginosa ATCC 27853 strain was used in this experiment. The bacterial attachment was initiated by inoculating the culture medium with approximately 10^7 CFU/mL in polystyrene 96-well plates, followed by incubation at 37 °C for 2 h in aerobic conditions. Subsequent to the attachment phase, the medium was carefully aspirated, and the 96-well plates were rinsed with phosphate-buffered saline (PBS) (pH 7.0) to eliminate unattached cells. The fresh medium, along with tested compounds, was then introduced to assess the inhibitory impact on biofilm formation. Following an 18 h incubation at 37 °C, a crystal violet (CV) assay was conducted. The well plate was washed with PBS to eliminate unattached cells, and a 1% CV solution was added, allowing for a 30 min incubation at room temperature. After this period, the well plate underwent three PBS washes, and absolute ethanol was added, incubating for 15 min. Following the transfer of the stained solution to a new well plate, the absorbance was measured at 595 nm.

[7] = system: HEK-293 cells; assay: AlamarBlue cell viability assay; assay type: cell-based; details: Homo sapiens, HEK293, 24 h exposure
Method: HEK-293 cells were cultured in DMEM containing 25 mM glucose, 10% heat-inactivated fetal bovine serum (FBS), 100 U/mL penicillin, and 100 μg/mL streptomycin. Cells were incubated at 37 °C in a humidified atmosphere containing 95% air and 5% CO2.
[…] Untreated groups were set as the control (100% cell viability). On the 24th, cells were treated with the Invitrogen AlamarBlue cell viability reagent for an additional 2 h. Optical density (OD) values (at wavelengths of 570 and 600 nm) were then recorded. The percentage of cell viability was calculated according to the protocol provided by the manufacturer.

[8] = system: pyocyanin production in the PA14 strain; assay: pyocyanin inhibition assay (chloroform extraction); assay type: cell-based, Pseudomonas aeruginosa; details: half of the MIC, 12 h, mean ± SD, n = 3
Method: Following the specified incubation period, the cultures underwent centrifugation at 10,000 rpm for 10 min, leading to the collection of the supernatant. Subsequently, 3 mL of chloroform was added to 5 mL of the supernatant, and the mixture was vortexed for 20 s. After centrifugation at 5000 rpm for 10 min, the resulting blue layer at the bottom was transferred to a new tube. To each tube, 2 mL of 0.2 M HCl was added and vortexed for 20 s. The sample underwent subsequent centrifugation for 2 min at 5000 rpm, and 1 mL of the resulting pink layer was transferred to cuvettes. A blank was established using 0.2 M HCl. Spectrophotometric measurements were carried out at 520 nm.

[9] = system: P. aeruginosa ATCC 27853; assay: swarming motility; assay type: cell-based, Pseudomonas aeruginosa; details: 24 h at 37 °C; for migration distance (mm): swarming, control 100 mm
Method: The analysis was performed in Petri dishes with the LB minimal medium supplemented with 0.2% glucose and 0.5% agar, as described by Kearns.[24] Tested compounds were added to the motility agar at the desired concentration. Aliquots (1.0 μL) were taken from P. aeruginosa ATCC 27853 overnight cultures and spotted in the center of each well, and the migration zones were measured after 24 h of incubation at 37 °C. The inhibition rate was calculated as follows: [drawing 1] where Dtreated and Dcontrol are the migration distances in the treated and control samples, respectively.

[10] = system: S. aureus; design: method as in Liu et al.[7]; details: bromo benzenediol derivatives; ref Liu et al.[7]; cited from earlier work
[11] = system: P. aeruginosa; design: method as in Liu et al.[7]; details: bromo benzenediol derivatives; ref Liu et al.[7]; cited from earlier work
[12] = system: Staphylcoccus epidermidis; design: method as in Liu et al.[7]; details: ref Liu et al.[7]; cited from earlier work

MIC S. aureus [2]: 10 µg/mL (≈ 28.6 µM)
MIC [2]: 10 µg/mL (≈ 28.6 µM)
MIC P. aeruginosa [4]: inactive
Structure (SMILES): CC1(C)S[C@@H]2[C@H](NC(=O)[C@H](N)c3ccccc3)C(=O)N2[C@H]1C(=O)O [ampicillin]
Diameter of zone inhibition on SA [1]: 14.5 mm
inhibition zone diameter S. aureus [1]: 16 mm
Diameter of zone inhibition on PA [3]: 0 mm
inhibition zone diameter P. aeruginosa [3]: no observable zone diameter
Diameter of zone inhibition on MRSA [5]: 15.5 mm
inhibition zone diameter MRSA [5]: 18 mm

Structure (SMILES): CC(=O)c1c(O)ccc(Br)c1O [compound 2, 3-Bromo-2,6-dihydroxyacetophenone]
biofilm formation inhibition (%) [6]: 14%
inhibition zone diameter S. aureus [1]: 29 mm
IC50 [7]: 31.1 µM
MIC [2]: 12 µg/mL (≈ 51.9 µM)
inhibition zone diameter P. aeruginosa [3]: 1 mm
MIC [4]: 780 µg/mL (≈ 3380 µM)
pyocyanin production inhibition (%) [8]: 52%
inhibition zone diameter MRSA [5]: 30 mm
swarming motility inhibition rate (%) [9]: 86.5%
migration distance (mm) [9]: 13.5 mm

Structure (SMILES): CC(=O)c1cc(Br)c(O)c(Br)c1O [compound 3, 3,5-Dibromo-2,4-dihydroxyacetophenone]
biofilm formation inhibition (%) [6]: 14%
inhibition zone diameter S. aureus [1]: 12 mm
IC50 [7]: > 32 µM
MIC [2]: 390 µg/mL (≈ 1260 µM)
inhibition zone diameter P. aeruginosa [3]: 1 mm
MIC [4]: 780 µg/mL (≈ 2520 µM)
pyocyanin production inhibition (%) [8]: 38%
inhibition zone diameter MRSA [5]: 20 mm
swarming motility inhibition rate (%) [9]: 86.5%
migration distance (mm) [9]: 13.5 mm

Structure (SMILES): Oc1cc(Cc2cc(O)c(O)c(Br)c2Br)c(Br)c(Br)c1O [compound 7, 4,4′-methylenebis(5,6-dibromo-1,2-benzenediol)]
MIC S. aureus [10]: 140 µg/mL (≈ 256 µM)
MIC P. aeruginosa [11]: 140 µg/mL (≈ 256 µM)

Structure (SMILES): Oc1cc(COCc2cc(O)c(O)c(Br)c2Br)c(Br)c(Br)c1O [compound 8, bis(2,3-dibromo-4,5-dihydroxybenzyl)ether]
MIC S. aureus [10]: 70 µg/mL (≈ 121 µM)
MIC P. aeruginosa [11]: 70 µg/mL (≈ 121 µM)
MIC on Staphylcoccus epidermidis [12]: 35 µg/mL (≈ 60.6 µM)

Structure (SMILES): CN(C)[C@@H]1C(O)=C(C(N)=O)C(=O)[C@@]2(O)C(O)=C3C(=O)c4c(O)cccc4[C@@](C)(O)[C@H]3C[C@@H]12 [tetracycline]
Diameter of zone inhibition on SA [1]: 9.75 mm
inhibition zone diameter S. aureus [1]: 14 mm
MIC S. aureus [2]: 30 µg/mL (≈ 67.5 µM)
MIC [2]: 30 µg/mL (≈ 67.5 µM)
Diameter of zone inhibition on PA [3]: 10.5 mm
inhibition zone diameter P. aeruginosa [3]: 10 mm
MIC P. aeruginosa [4]: 70 µg/mL (≈ 158 µM)
MIC [4]: 70 µg/mL (≈ 158 µM)
Diameter of zone inhibition on MRSA [5]: 10.25 mm
inhibition zone diameter MRSA [5]: 12 mm

MIC S. aureus [2]: 25 µg/mL (≈ 53.5 µM)
MIC [2]: 25 µg/mL (≈ 53.5 µM)
MIC P. aeruginosa [4]: 15 µg/mL (≈ 32.1 µM)
MIC [4]: 15 µg/mL (≈ 32.1 µM)
Structure (SMILES): NC[C@H]1O[C@H](O[C@H]2[C@H](O)[C@@H](O[C@H]3O[C@H](CO)[C@@H](O)[C@H](N)[C@H]3O)[C@H](N)C[C@@H]2N)[C@H](N)C[C@@H]1O [tobramycin]
inhibition zone diameter S. aureus [1]: 15 mm
Diameter of zone inhibition on PA [3]: 5.5 mm
inhibition zone diameter P. aeruginosa [3]: 15 mm
Diameter of zone inhibition on MRSA [5]: 5.5 mm
inhibition zone diameter MRSA [5]: 12 mm
